Source: patent publication US9636021B2, “Flavonoid compounds of low toxicity for biological imaging applications” (The University of Akron, priority 2014, dated 2017)

How the values were obtained:
[1] = tested on: zebrafish embryos; assay: toxicity to labeled zebrafish embryos; assay type: in vivo, zebrafish (Danio rerio); details: morphology and size vs non-labeled control embryos
From the text: (§1) The stable and biocompatible staining property of CDCO enables a long-term visualization method for tracking the development and migration of the YSL.

[2] = target: T1, bovin serum albumin (BSA) (Bos taurus, UniProt P02769); assay: interaction between CDCO and BSA (absorption, fluorescence, warfarin displacement); assay type: binding, bovine
T1 construct: purchased Sigma Aldrich (St. Louis, Mo.)
From the text: The bovin serum albumin (BSA) as the common protein model was used to investigate the interaction between CDCO and proteins. After addition of one equivalent of BSA, the absorption peak at 385 nm was shifted to 402 nm. With the excitation at 400 nm, the fluorescence intensity of CDCO was enhanced about 2-fold, which was accompanied with a large blue-shift (by about 60 nm) from 560 nm to 500 nm. […] However, when the sample was excited at 570 nm, a red/near-infrared fluorescence peak was detected at 700 nm. In order to determine the location of CDCO on BSA, the displacement of CDCO was carried out by addition of warfarin, which is known to strongly bind to the warfarin binding site in Domain II A of BSA. […] It is believed that the emission at 750 nm might be related to the complicated charge and energy transfer inside dye-BSA complex.

[3] = tested on: yolk syncytial layer (YSL) of zebrafish embryos; assay: fluorescence stability and leakage of CDCO in zebrafish embryos; assay type: in vivo, zebrafish (Danio rerio); details: 5 hpf and 18 hpf embryos, 10 μM 30 min, washed, 1 hour in E3 medium
Method: Stability is one of the most important criteria for developing fluorescent imaging agents for living organisms, especially for tracking highly dynamic structures like the YSL.
as §1
For the example represented by FIGS. 9-12, the 4.5 hpf and 17.5 hpf zebrafish embryos were firstly incubated in an E3 medium containing 10 μM CDCO and 0.2% DMSO for 0.5 h, then were washed with E3 medium, followed by incubating in the E3 medium for 1 hour.

[4] = tested on: yolk syncytial layer (YSL) of zebrafish embryos; assay: fluorescence staining of zebrafish embryos and larvae; assay type: in vivo, zebrafish (Danio rerio)
Method: Zebrafish embryos at 16 hours post fertilization (hpf) were initially used to study the CDCO's stain ability. A developing zebrafish body is normally covered by chorion and enveloping layer (EVL), which prevent dye molecules permeating into the fish body. In this example, 0.2% DMSO with 10 μM CDCO was infused to the E3 medium to decrease the barrier function of the zebra fish chorion without damaging the fish embryos' structural integrity. […] Thus, it is believed that CDCO selectively stained the YSL region.
To investigate the location of CDCO labeling, zebra fish embryos at nine representative stages of early development were incubated with 10 μM CDCO for 30 minutes at 28.5° C., respectively (FIGS. 3-8). The YSL is initially generated by the collapse/fusion of marginal blastomeres with the yolk cell, and then a thin ring of YSL nuclei forms in front of blastoderm margin at high stage.
The YSL structure can persist on the edge of yolk cell until larval stages. […] This YSL-imaging method can selectively stain the YSL structure from its initial formation, to the dynamic epiboly, and finally to the disappearance of YSL, thus representing a promising tracking agent for zebrafish embryonic development studies.
Wild-type zebrafish embryos were collected and maintained as described in The Zebrafish Book by Monte Westerfield, which is incorporated herein by reference. Zebrafish were kept at 28.5° C. and maintained in E3 embryo medium (15 mM NaCl, 0.5 mM KCl, 1 mM MgSO4, 1 mM CaCl2, 0.15 mM KH2PO4, 0.05 mM Na2HPO4, 0.7 mM NaHCO3, 10^−5% methylene blue; pH 7.5).
For the example represented by FIGS. 1 and 2, 10 μL CDCO stock solution (5 mmol/L CDCO in DMSO) was added into 5 mL E3 medium, then 16 hpf zebra fish embryos were gently transferred to this medium (solution) and incubated at 28.5° C. for 30 min. The dyes which stick to the chorion of the embryos were washed away with E3 medium before imaging by fluorescence microscopy.
For the example represented by FIGS. 3-8, the zebra fish embryos at 2.5 hpf, 4.5 hpf, 6.5 hpf, 7.5 hpf, 8.5 hpf, 11.5 hpf and 16.5 hpf were separately handled following the same procedure.
For the example represented by FIG. 22, the staining time required was 1 hour, since the CDCO was more difficult to penetrate through the older fish skin. Before imaging, the zebrafish were treated with tricaine (anesthetic 0.03%).
All the zebrafish were imaged using fluorescent microscopy (Axio. Vert with X-Cite Series 120Q). The blue-CH filter: excitation 365 nm, beam splitter FT 395 nm, emission 445/50 nm. The green-CH filter: excitation 450-490 nm, beam splitter FT 510 nm, emission 515-565 nm. The red-CH filter: excitation 587/25 nm, beam splitter FT 605 nm, and emission 647/70 nm.)

[5] = tested on: zebrafish vitellogenin; assay: interaction between CDCO and zebrafish vitellogenin; assay type: binding
Method: ^1H NMR and ^13C NMR spectra were obtained using an AVANCE II apparatus from Bruker Corporation (Billerica, Mass.). UV-vis spectra were acquired on an 8453 diode-array spectrometer from Hewlett-Packard (Palo Alto, Calif.). Fluorescence spectra were measured by RF-5301 PC spectrometer from Shimadzu Corporation (Kyoto, Japan). Electrospray ionization (ESI) mass spectra were acquired with a Synapt HDMS quadrupole/time-of-flight (Q/ToF) mass spectrometer from Waters Corporation (Milford, Mass.). All the solvents for the fluorescence experiments were analytic grade, which were purchased from Fisher Scientific (Waltham, Mass.) and used without further purification. Bovine serum albumin was purchased from Sigma Aldrich (St. Louis, Mo.). Zebrafish vitellogenin standard was purchased from Cayman Europe Biosense Laboratories (No. V01008301). The fluorescence imaging was obtained by X-Cite™ Series 120Q fluorescence microscope from Lumen Dynamics. For the blue channel filter: excitation 365 nm, beam splitter FT 395 nm, emission 445/50 nm. For the green channel filter: excitation 450-490 nm, beam splitter FT 510 nm, emission 515-565 nm. For the red channel filter: excitation 587/25 nm, beam splitter FT 605 nm, emission 647/70 nm.
Zebrafish embryos at 16 hours post fertilization (hpf) were initially used to study the CDCO's stain ability. […]

[6] = target: bovine serum albumin (BSA) (Bos taurus, UniProt P02769); assay: fluorescence turn-on with BSA in PBS buffer; assay type: binding; details: for detection limit (10% increase in fluorescence emission) / visual recognizable detection limit (S/N above 3:1): BSA; for F(+)/F(−) fluorescence intensity with BSA / without BSA: BSA 1.0 mg/ml; for F(+)/F(−) fluorescence intensity with BSA / without BSA / λabs(+) / λem(+) / λabs(−) / λem(−): 10 μM dye; for F(+)/F(−) fluorescence intensity with BSA / without BSA / fluorescence in the absence of BSA / λabs(+) / λem(+) / λabs(−) / λem(−): 10 mM PBS, 0.5% DMSO, pH 7.4; for fluorescence in the absence of BSA: aqueous buffer; for λabs(+) / λem(+): with BSA 1.0 mg/ml; for λabs(−) / λem(−): without BSA
Method: In the aqueous buffer (0.5% DMSO, 10 mM of PBS, pH=7.4), the BSA binding-induced fluorescence turn-on was so large that it could be easily seen by naked eye. […] The intramolecular charge transfer along the D-A conjugated backbone plays a very important role in the environment-sensitivity of the flavone. All the evidence consistently pointed to the flavone dye entering the hydrophobic site of BSA.
Generally, the detection limit can be defined as the analyte concentration at which a 10% increase in fluorescence emission can be measured.
Therefore, the detection limits of compounds 1-6 were 2.6, 0.14, 0.59, 0.09, 14, and 3.4 μg/mL, respectively. For Off/On type fluorescent sensor, the Signal-to-Noise (S/N) ratio above 3:1 is considered reliable for visual evaluation. The visual recognizable detection limits of compounds 1-6 were calculated as 78, 4.2, 17.7, 2.7, 420, and 102 μg/mL, respectively. The reference range for serum albumin concentration in human blood plasma is approximately 35-50 mg/mL. Even in fish, the concentration of serum albumins can reach 0.5-5 mg/mL. The detection limits of the compounds were much lower than serum albumin concentration, indicating the capability for actual blood sample testing.

[7] = absorbance and fluorescence spectra in DMSO; assay type: physicochemical
From the text: The absorbance and fluorescence spectra of compounds 1-6 in dimethyl sulfoxide (DMSO) were investigated and the results are in Table 1.

[8] = target: dye-BSA complexes (Bos taurus, UniProt P02769); assay: photostability of dye-BSA complexes under continuous UV irradiation; assay type: physicochemical, bovine; details: 365 nm, 500 μW/cm2, 10 μM dye, 1.0 mg/mL BSA
Method: The photostability of flavone dyes 1-6 in the presence of BSA was also examined to evaluate the application for long-term imaging. The dye-BSA complexes (10 μM of compounds 1-6, 1.0 mg/mL of BSA in 10 mM PBS buffer containing 0.5% DMSO, pH=7.4) were placed in cuvette cells, then were continuously irradiated under a hand-held UV lamp (λ=365 nm, 500 μW/cm2).

[9] = embryos at early development stages, 10 μM, 30 minutes, 28.5° C.

T1 sequence (P02769 25-607): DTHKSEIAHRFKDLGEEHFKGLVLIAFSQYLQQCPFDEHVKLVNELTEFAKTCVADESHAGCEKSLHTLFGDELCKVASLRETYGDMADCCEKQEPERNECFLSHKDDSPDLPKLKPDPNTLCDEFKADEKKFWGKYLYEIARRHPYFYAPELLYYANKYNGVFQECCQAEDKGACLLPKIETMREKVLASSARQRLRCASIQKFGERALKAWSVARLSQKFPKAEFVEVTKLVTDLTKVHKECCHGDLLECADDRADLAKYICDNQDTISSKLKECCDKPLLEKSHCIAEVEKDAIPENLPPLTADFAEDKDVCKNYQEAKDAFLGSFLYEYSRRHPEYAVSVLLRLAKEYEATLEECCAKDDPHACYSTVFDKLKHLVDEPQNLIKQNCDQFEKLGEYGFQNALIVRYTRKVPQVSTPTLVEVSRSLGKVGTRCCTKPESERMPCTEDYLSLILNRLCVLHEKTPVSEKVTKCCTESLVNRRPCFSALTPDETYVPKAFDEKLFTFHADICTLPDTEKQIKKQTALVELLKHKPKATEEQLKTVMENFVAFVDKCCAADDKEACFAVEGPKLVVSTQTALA
Chain of bovine serum albumin (BSA) (P02769 25-607): as above
Chain of dye-BSA complexes (P02769 25-607, one chain of several): as the sequence (P02769 25-607) above

SMILES	detection limit (10% increase in fluorescence emission) [6]	visual recognizable detection limit (S/N above 3:1) [6]	F(+)/F(−) fluorescence intensity with BSA / without BSA [6]	fluorescence in the absence of BSA [6]	λabs(+) [6]	λem(+) [6]	λabs(−) [6]	λem(−) [6]	Φ [7]	λabs [7]	photostability under UV irradiation [8]	also measured
CN(C)c1ccc(-c2oc3ccccc3c(=O)c2OCc2ccc(CCl)cc2)cc1 [CDCO, 3-(4-(chloromethyl)benzyloxy)-2-(4-(dimethylamino)phenyl)-4H-chromen-4-one]												toxicity to labeled embryos [1]: almost no apparent toxicity; effect of warfarin on red fluorescence ([2]; 5-fold excess of warfarin): did not completely quench the red fluorescence; emission after warfarin displacement ([2]; 5-fold excess of warfarin): 750 nm; absorption peak ([2]; after addition of one equivalent of BSA): 402 nm; absorption peak ([2]; before addition of BSA): 385 nm; fluorescence emission ([2]; excitation 400 nm, before BSA): 560 nm; blue-shift in fluorescence ([2]; excitation 400 nm, on addition of BSA): about 60 nm; fluorescence emission ([2]; excitation 400 nm, with one equivalent of BSA): 500 nm; fluorescence intensity enhancement ([2]; one equivalent of BSA, excitation at 400 nm): about 2 fold; red/near-infrared fluorescence peak ([2]; with BSA, excited at 570 nm): 700 nm; fluorescence leakage after washing [3]: no significant fluorescence leakage to blastoderm or somite; staining of 16 hpf zebrafish embryos ([4]; 10 μM, 0.2% DMSO in E3 medium, 30 minutes): stained specifically the yolk-related region in the embryos; localisation of dye during embryo development [4, 9]: consistently confined to the YSL without significant leakage to the blastoderm; staining of the yolk cell [4, 9]: barely stained; fluorescent labeling of 36 hpf embryos ([4]; incubated 1 hour): strong red fluorescence as well as blue and green emission in the yolk region; fluorescent labeling of 7 days old larval zebrafish ([4]; incubated 1 hour, YSL completely absorbed): almost no red fluorescence was observed; red fluorescence with zebrafish vitellogenin [5]: almost no red fluorescence
CCOCc1ccc2oc(-c3ccc(N(C)C)cc3)c(O)c(=O)c2c1 [compound 2, 2-(4-(dimethylamino)phenyl)-6-(ethoxymethyl)-3-hydroxy-4H-chromen-4-one]	0.14 µg/mL	4.2 µg/mL	740	almost no fluorescence	415 nm	506 nm	410 nm	555 nm	14.1%	403 nm		
Cc1ccc2oc(-c3ccc(N(C)C)cc3)c(O)c(=O)c2c1 [compound 3, 2-(4-(dimethylamino)phenyl)-3-hydroxy-6-methyl-4H-chromen-4-one]	0.59 µg/mL	17.7 µg/mL	170	almost no fluorescence	409 nm	552 nm	400 nm	582 nm	11.0%	404 nm		
CC(=O)Nc1ccc(-c2oc3ccccc3c(=O)c2O)cc1 [compound 5, N-(4-(3-hydroxy-4-oxo-4H-chromen-2-yl)phenyl)acetamide]	14 µg/mL	420 µg/mL	7.0		365 nm	514 nm	357 nm	452 nm	5.4%	363 nm	fluorescence quenching	λem [7]: 505 nm
Nc1ccc(-c2oc3ccccc3c(=O)c2O)cc1 [compound 6, 2-(4-aminophenyl)-3-hydroxy-4H-chromen-4-one]	3.4 µg/mL	102 µg/mL	29		386 nm	512 nm	373 nm	522 nm	7.2%	394 nm	fluorescence quenching	
